In publication PMC6389703, “Identification of Biologically Active Ganoderma lucidum Compounds and Synthesis of Improved Derivatives That Confer Anti-cancer Activities in vitro” (Frontiers in Pharmacology, 2019):
Like-named read-outs stand apart in the source and are kept apart here.

Experiments:
SUM-149 cells [1] = assay: Cell viability assay, SUM-149; assay type: cell-based, human; conditions: for EC50: Homo sapiens, read-out: EC50, SUM-149 cell viability
Procedure: Either 1 × 10^3–4.8 × 10^3 or 4 × 10^2–1.2 × 10^3 cells were seeded to each well of 96- or 384-well white polystyrene flat-bottomed plates (3610 or 8804BC, Corning) in 100 μL or 30 μL media per well, respectively. The concentrations used were experimentally determined to ensure logarithmic growth during the duration of the experiment and prevent adverse effects on cell growth by DMSO exposure. The plates were incubated at 37°C in 5% CO2 for 24 h before treatment. Stock solutions of test compounds (10 mM in DMSO) in nine 3-fold serial dilutions were dispensed via pintool (Biomek). The final concentration of DMSO was 0.3% (v/v) in each well. The plates were incubated for 72 h at 37°C in 5% CO2 and then quenched with CellTiter-Glo® reagent (50 μL/well in 96-well plate, 30 μL/well in 384-well plate) at RT. The positive controls included staurosporine (10 μM), gambogic acid (10 μM), and a toxic quinoline generated in-house. Plates were then incubated at RT for 20 min and centrifuged at 1000 rpm for 1 min. The cytotoxicity assay was performed by using the CellTiter-Glo® Luminescent Cell Viability Assay kit (G7570, Promega, Madison, WI, United States) according to the manufacturer’s instructions. Luminescence was recorded in an Envision plate reader (PerkinElmer).
Cell viability assays (MTT or PI staining assays) in SUM-149, SUM-190, MDA-MB-231, and MCF10A cells were performed as we previously described ([Suarez-Arroyo et al., 2016]).
For the CTG assay, 3 or 4 replicate assays were conducted for each experimental condition, and a minimum of 3 independent experiments were conducted for cellular assays. The mean luminescence of each experimental treatment group was normalized as a percentage of the mean intensity of untreated controls. EC50 values (μM) were calculated by Pipeline Pilot Software (Accelrys, Enterprise Platform, San Diego, CA, United States). EC50 values (μM) from the viability assay were calculated from dose response curve-fitting via non-linear regression by using GraphPad Prism (Version 7.0, San Diego, CA, United States). For cell viability, colony formation, cell-cycle progression, cell death, and western blot assays, the analyses were performed via one-way or two-way ANOVA with post-testing for each condition (concentration, cell cycle stage, apoptotic event, cell line) by using GraphPad Prism.

MDA-MB-231 cells = assay: ApoTox-Glo Triplex assay, MDA-MB-231; assay type: cell-based, human
Procedure: Cells (9.5 × 10^4/well in 75 μL of fresh medium) were dispensed in 96-well black flat bottom (8807BC, Corning) plates. The cells were incubated for 12 h at 37°C and then treated with compounds (25 μL) for 24 h. DMSO was used as a negative control, and staurosporine was used as the positive control. […] Then, the Caspase-Glo® 3/7 Reagent was added; plates were mixed briefly by orbital shaking (300-500 rpm for ∼30 s), followed by an additional 30 min incubation at RT. Then luminescence, which correlates with caspase 3/7 activation, was recorded with a plate reader to […] apoptosis induction.

SUM-149 cells [2] = assay: ROS measurement (CellROX green), SUM-149; assay type: cell-based, human; conditions: EP 20 μM
Procedure: SUM-149 or MDA-MB-231 were plated in 96-well plates at a density of 2 × 10^4 and 1 × 10^4 cells/well, respectively, in black 96-well clear bottom tissue culture plates and incubated for 24 h at 37°C. The mRuby-Mito-7 plasmid was obtained from Addgene (#55874 from Michael Davidson). A stable clone of MCF-7 was generated by using Fugene 6 (Roche) to transfect cells (2 × 10^5) with plasmid (2.0 μg) under neomycin selection. A stable cell line was selected by using G418 (300 μg/mL) for 2 weeks, sorted by flow cytometry, and maintained under G418 thereafter. Transfected MCF-7 cells were plated at a density of 2 × 10^4 cells/well in black 96-well clear bottom tissue culture plates and incubated overnight at 37°C. To test for ROS formation and remove background, cells were replenished with fresh PBS with 2% FBS and treated with the desired compounds for 1 h at 37°C. DMSO (0.5%) was used as a negative control, while Menadione (Mena, at 10 μM) or t-Butyl hydroperoxide (TBHP) at 100 μM final concentration were used as a positive control. To evaluate the compounds’ effects on ROS formation inhibition, the free radical scavenger N-acetyl cysteine (NAC) was used. Cells were treated with or without NAC (500 μM or 100 μM) for 1 h, then CellROX® green reagent (Molecular Probes #C10444) was added to a final concentration of 5 μM, and cells were incubated for an additional 30 min at 37°C. Cells were then washed 2× with PBS, followed by fixation with 4% paraformaldehyde (v/v) for 15 min, and 2 more washes with PBS. Fluorescence intensity was measured in a Clariostar® plate reader (BMG LABTECH, Cary, NC, United States) at 535 nm.

[3] = tested on: AKT isoforms, BCL-XL, Cyclin D1, c-Myc, PARP in SUM-149 cells; assay: Immunoblots of signaling proteins; assay type: cell-based, human
Excerpt: Breast cancer cells treated with vehicle or EP were lysed, and equal total protein was resolved via SDS-PAGE and immunoblotted with indicated antibodies (Cell Signaling Technologies, Abcam, Sigma) as described previously ([Castillo-Pichardo et al., 2009]; [Martinez-Montemayor et al., 2011]; [Suarez-Arroyo et al., 2016]).

[4] = Solubility in DMSO or water; conditions: unless warmed up to 30°C

CC(C)[C@@H](C)/C=C/[C@@H](C)[C@H]1CC[C@@H]2[C@]1(C)CC[C@H]1[C@]23C=C[C@]2(C[C@@H](O)CC[C@]12C)OO3 [EP, ergosterol peroxide]
concentration at which SUM-149 cell viability is significantly reduced (SUM-149 cells [1]; 72 h): 8 µM | EC50 (SUM-149 cells [1]; SUM149, 24 h): 34 µM | EC50 (SUM-149 cells [1]; SUM149, 72 h): 20 µM | cytotoxicity by membrane integrity (MDA-MB-231 cells; MDA-MB-231): increased cytotoxicity | caspase 3/7 activity (MDA-MB-231 cells; MDA-MB-231, 24 h): increase caspase 3/7 activity | viability (GF-AFC) (MDA-MB-231 cells; MDA-MB-231, 24 h): decrease viability | ROS formation (fold) (SUM-149 cells [2]; 1 h): fourfold | reduction in ROS formation in the presence of NAC (SUM-149 cells [2]; NAC 500 μM, menadione 10 μM): about 20% | AKT3 levels ([3]; SUM-149): not affecting AKT3 levels | p-AKT2 ([3]; SUM-149): without affecting p-AKT2 | PARP cleavage ([3]; SUM-149, 30 μM, 24 h): induces PARP cleavage | total PARP levels ([3]; SUM-149, 30 μM, 24 h): significantly reduces total PARP levels | AKT2 levels ([3]; SUM-149, 72 h): decreases | expression of BCL-XL ([3]; SUM-149, 72 h): significantly reduces | expression of Cyclin D1 ([3]; SUM-149, 72 h): significantly reduces | expression of c-Myc ([3]; SUM-149, 72 h): significantly reduces | expression of p-AKT1 (Ser 473) ([3]; SUM-149, 72 h): significantly decreases | total AKT1 levels ([3]; SUM-149, 72 h): decreases total AKT1 | solubility properties in DMSO or water [4]: poor
